Legend:
Aqueous solubility = format: physicochemical
Treg expansion = Treg expansion with PBMC-derived DCs of healthy volunteers; format: cell-based, human; details: cells from healthy volunteers
ABCA1 mRNA = ABCA1 mRNA reduction in Raw cells; format: cell-based; set-up: key: ✓: using strict cutoffs with respect to DSHN for passing each metric; X: using strict cutoffs with respect to DSHN for passing each metric; details: pass/fail with respect to DSHN
Description: Development of a more efficacious NR0B2 agonist. While DSHN was a useful proof-of-concept small molecule, macrophages required high doses and chronic exposure for robust influences on subsequent Tregs expansion. […] Therefore, we synthesized several derivatives of DSHN and screened them using a reporter assay which makes use of the endogenous cholesterol homeostatic feedback loop, where FXR activation upregulates NR0B2, which then inhibits LXR and its normal induction of ABCA1. We then followed this screen with several others with stringent cutoffs: effect on endogenous ABCA1 and IL1β expression, reduction of Treg expansion in either macrophage or DC co-cultures, and low cellular toxicity (FIG. 5A, Table 4).

NR0B2 = biological target: T1, NR0B2 (Mus musculus, UniProt Q62227); experiment: Attenuation of GW3965 (LXR agonist) induction of ABCA1 mRNA in BMDMs; format: cell-based
T1 construct: Dose response assay in BMDMs pre-treated with increasing doses of DSHN-OMe and then treated with 1 μM GW3965, using ABCA1 mRNA as an endpoint; endogenous in cells; host or cells: mouse bone marrow derived macrophages (BMDMs)
T1 sequence (Q62227 1-260): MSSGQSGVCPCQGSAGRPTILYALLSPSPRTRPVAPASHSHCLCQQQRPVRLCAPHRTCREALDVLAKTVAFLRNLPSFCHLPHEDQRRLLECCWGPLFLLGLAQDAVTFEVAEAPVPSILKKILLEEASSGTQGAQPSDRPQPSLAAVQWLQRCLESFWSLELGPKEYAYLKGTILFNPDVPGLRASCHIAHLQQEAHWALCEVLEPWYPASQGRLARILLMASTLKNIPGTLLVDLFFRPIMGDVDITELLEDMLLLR
Procedure: FIG. 5A-5D. DSHN-OMe, an NR0B2 small molecule ligand with increased potency in terms of reducing Treg expansion and strong efficacy against metastatic mammary tumors. (A) DSHN-OMe effectively reduces induction of LXR target gene ABCA1 by GW3965. Different letters denote statistical difference between GW3965 treated groups (N=3-4/group, 1-way ANOVA followed by Šidák test). (B) Dose response assay in BMDMs pre-treated with increasing doses of DSHN-OMe and then treated with 1 μM GW3965, using ABCA1 mRNA as an endpoint. Data was normalized to 0.01 μM DSHN-OMe (0%) and GW3965 alone (100%). DSHN (100 μM) is indicated for comparison (bar at end of graph). […] (C) Thermal shift assay using a recombinant protein presence of a fluorescent dye. Plot of raw data is above plot of first derivative. (D) DSHN-OMe is ineffective at regulating ABCA1 when NR0B2 is knocked down with siRNA in BMDMs.
The TM for apo/unliganded was 46.74±0.22, DSHN-OMe at 46.92±0.17 and DSHN at 46.34±0.51° C. (FIG. 5C).

| Structure (SMILES) | Aqueous solubility (Aqueous solubility) | Treg expansion, human PBMC-derived DCs (Treg expansion) | ABCA1 mRNA reduction (Raw Cells) (ABCA1 mRNA) | IC50 (NR0B2; BMDMs pre-treated with compound, then 1 μM GW3965, 4 parameter variable slope fit, read-out: IC50, ABCA1 mRNA as endpoint) | LXR induction of ABCA1 (NR0B2; BMDMs, GW3965) | Attenuation of ABCA1 induction with NR0B2 knockdown (NR0B2; BMDMs, NR0B2 siRNA, GW3965) |
| --- | --- | --- | --- | --- | --- | --- |
| CCN(CC)S(=O)(=O)c1cccc2cc(C(=O)O)c(O)cc12 [DSHN, reference compound] | poor aqueous solubility | decreased Treg expansion | – | – | – | – |
| CCN(CC)S(=O)(=O)c1cccc2cc(C(=O)OC)c(O)cc12 [DSHN-OMe, Methyl 5-(N,N-diethylsulfamoyl)-3-hydroxy-2-naphthoate] | – | – | ✓ | 3.8 µM | reducing LXR induction of ABCA1 in a dose-related manner | lost when NR0B2 was knocked down in BMDMs |
